{"source": "patent US20230030989A1", "about": "“JUST SUNSCREEN” (Pouch Pac Innovations, LLC, priority 2019, published 2023)", "conditions": "in vivo", "excerpt": "Subjects reported to the testing facility, at which time inclusion/exclusion criteria was reviewed and Informed Consent obtained. Upon verification of eligibility to enroll, the test articles were applied to the upper arm of each subject. The test articles were applied to the Webril□ disks according to a dose regime (see Section 5.1). The skin was marked with dots of crystal violet applied on either side of the top disk and below the bottom disk of the strip to enable exact location of subsequent patches. Each subject was asked to avoid the dye marks during washing and to keep the patches dry.\nSubjects received patches containing the test article and two standard controls which were applied as 0.2 ml/0.2 g samples in one of five randomly assigned orders on the upper arm. The sample order for each subject was documented and maintained throughout the study in the form of a color-coded identification card. Subjects were instructed to keep the patches dry and in place for 23 hours then to remove and discard them and to return to the test center one hour later. Patches were applied on Days 1, 2, 3 and 4. Patches were applied to the same site on each day unless a reaction stronger than a mild erythema (i.e. greater than a score of 1.5 (Appendix 5)) was present in which case the patch strip was cut and the relevant patch (es) not reapplied. Assessment of patch sites was immediately before application of the next patch on Days 2, 3, 4 and on Day 5. After removal of the patches the test sites were wiped with a damp tissue to remove any remaining product.", "data": [{"smiles": "CCCCCCCCCCCCOS(=O)(=O)[O-].[Na+]", "note": "[0.3% W/V SLS]", "values": [{"measurement": "patch site score Day 2, MEAN", "value": 0.08}, {"measurement": "patch site score Day 3, MEAN", "value": 0.37}, {"measurement": "patch site score Day 4, MEAN", "value": 0.63}, {"measurement": "patch site score Day 5, MEAN", "value": 0.82}]}]}
